Results as given in the supplement of paper PMC10307832.

Tests used:
Assay in all cases: relative viability (nuclei count vs DMSO), 5 days (fraction); higher = more cells survive
[1] = system: LU99A
How it was run: (§1)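 After 5 days of treatment, lung cancer cells in 1536-well plates were fixed and stained in a single step (final 0.05% Triton X-100, 1% formaldehyde, 1 ug/ml Hoechst) and their nuclei counted on 4× images. Treatment had been applied by pin tool the day after seeding as one drug alone or as a fixed anchor-drug dose with five library-drug doses (not always all listed) in √10 steps. Relative viability is the nuclei count of treated wells divided by that of vehicle wells, and values are medians of duplicate plates.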

[2] = system: NCI-H2170
How it was run: as §1

[3] = system: NCI-H650
How it was run: as §1

[4] = system: 201T
How it was run: as §1

[5] = system: NCI-H1437
How it was run: as §1

[6] = system: NCI-H647
How it was run: as §1

[7] = system: PC-3 [JPC-3]
How it was run: as §1

[8] = system: NCI-H2085
How it was run: as §1

[9] = system: EPLC-272H
How it was run: as §1

[10] = system: H3255
How it was run: as §1

[11] = system: HCC-44
How it was run: as §1

[12] = system: NCI-H1666
How it was run: as §1

[13] = system: EKVX
How it was run: as §1

[14] = system: NCI-H1975
How it was run: as §1

[15] = system: NCI-H2342
How it was run: as §1

[16] = system: LOU-NH91
How it was run: as §1

[17] = system: BEN
How it was run: as §1

[18] = system: HCC-827
How it was run: as §1

[19] = system: NCI-H2087
How it was run: as §1

[20] = system: LCLC-97TM1
How it was run: as §1

In the case of `O=c1cc(-c2cccc3c2Sc2ccccc2S3)oc(N2CCOCC2)c1` + NC(=O)Nc1cc(-c2cccc(F)c2)sc1C(=O)N[C@H]1CCCNC1 [AZD7762] (partner 0.2 µM), the relative viability ([1]; first compound 0.08 µM) is reported as 0.28, the relative viability ([1]; first compound 0.253 µM) is reported as 0.349 and the relative viability ([1]; first compound 0.8 µM) is reported as 0.38. It also gave a relative viability ([1]; first compound 2.53 µM) of 0.309, a relative viability ([1]; first compound 8 µM) of 0.456 and a relative viability ([2]; first compound 0.08 µM) of 0.842. The relative viability ([2]; first compound 0.253 µM) was 0.868, the relative viability ([2]; first compound 0.8 µM) was 0.996 and the relative viability ([2]; first compound 2.53 µM) was 0.792. It also gave a relative viability ([2]; first compound 8 µM) of 0.804, a relative viability ([3]; first compound 0.08 µM) of 0.886 and a relative viability ([3]; first compound 0.253 µM) of 1.09. For the same compound, the relative viability ([3]; first compound 0.8 µM) was 1.03, the relative viability ([3]; first compound 2.53 µM) was 0.668 and the relative viability ([3]; first compound 8 µM) was 1.01. The relative viability ([4]; first compound 0.08 µM) was 0.598, the relative viability ([4]; first compound 0.253 µM) was 0.686 and the relative viability ([4]; first compound 0.8 µM) was 0.741. For the same compound, the relative viability ([4]; first compound 2.53 µM) was 0.655, the relative viability ([4]; first compound 8 µM) was 0.546 and the relative viability ([5]; first compound 0.08 µM) was 1.07. The relative viability ([5]; first compound 0.253 µM) was 1.23, the relative viability ([5]; first compound 0.8 µM) was 1.2 and the relative viability ([5]; first compound 2.53 µM) was 1.17. It also gave a relative viability ([5]; first compound 8 µM) of 1.23, a relative viability ([6]; first compound 0.08 µM) of 0.545 and a relative viability ([6]; first compound 0.253 µM) of 0.422. It also gave a relative viability ([6]; first compound 0.8 µM) of 0.456, a relative viability ([6]; first compound 2.53 µM) of 0.197 and a relative viability ([6]; first compound 8 µM) of 0.49. It also gave a relative viability ([7]; first compound 0.08 µM) of 0.721, a relative viability ([7]; first compound 0.253 µM) of 0.745 and a relative viability ([7]; first compound 0.8 µM) of 0.758. The relative viability ([7]; first compound 2.53 µM) was 0.766, the relative viability ([7]; first compound 8 µM) was 0.728 and the relative viability ([8]; first compound 0.08 µM) was 1.01. It also gave a relative viability ([8]; first compound 0.253 µM) of 1.17, a relative viability ([8]; first compound 0.8 µM) of 1.02 and a relative viability ([8]; first compound 2.53 µM) of 0.836. The relative viability ([8]; first compound 8 µM) was 0.614, the relative viability ([9]; first compound 0.08 µM) was 0.19 and the relative viability ([9]; first compound 0.253 µM) was 0.242. It also gave a relative viability ([9]; first compound 0.8 µM) of 0.22, a relative viability ([9]; first compound 2.53 µM) of 0.24 and a relative viability ([9]; first compound 8 µM) of 0.248. For the same compound, the relative viability ([10]; first compound 0.08 µM) was 0.878, the relative viability ([10]; first compound 0.253 µM) was 0.996 and the relative viability ([10]; first compound 0.8 µM) was 0.758. The relative viability ([10]; first compound 2.53 µM) was 0.882, the relative viability ([10]; first compound 8 µM) was 0.901 and the relative viability ([11]; first compound 0.08 µM) was 1.06. The relative viability ([11]; first compound 0.253 µM) was 1.04, the relative viability ([11]; first compound 0.8 µM) was 0.937 and the relative viability ([11]; first compound 2.53 µM) was 0.991. It also gave a relative viability ([11]; first compound 8 µM) of 0.986, a relative viability ([12]; first compound 0.08 µM) of 0.76 and a relative viability ([12]; first compound 0.253 µM) of 0.928. For the same compound, the relative viability ([12]; first compound 0.8 µM) was 0.781, the relative viability ([12]; first compound 2.53 µM) was 0.773 and the relative viability ([12]; first compound 8 µM) was 0.85. The relative viability ([13]; first compound 0.08 µM) was 0.67, the relative viability ([13]; first compound 0.253 µM) was 0.709 and the relative viability ([13]; first compound 0.8 µM) was 0.74. It also gave a relative viability ([13]; first compound 2.53 µM) of 0.669, a relative viability ([13]; first compound 8 µM) of 0.717 and a relative viability ([14]; first compound 0.08 µM) of 0.601. The relative viability ([14]; first compound 0.253 µM) was 0.733, the relative viability ([14]; first compound 0.8 µM) was 0.502 and the relative viability ([14]; first compound 2.53 µM) was 0.631. For the same compound, the relative viability ([14]; first compound 8 µM) was 0.678, the relative viability ([15]; first compound 0.08 µM) was 0.415 and the relative viability ([15]; first compound 0.253 µM) was 0.466. It also gave a relative viability ([15]; first compound 0.8 µM) of 0.545, a relative viability ([15]; first compound 2.53 µM) of 0.529 and a relative viability ([15]; first compound 8 µM) of 0.541. The relative viability ([16]; first compound 0.08 µM) was 0.764, the relative viability ([16]; first compound 0.253 µM) was 0.778 and the relative viability ([16]; first compound 0.8 µM) was 0.697. The relative viability ([16]; first compound 2.53 µM) was 0.714, the relative viability ([16]; first compound 8 µM) was 0.786 and the relative viability ([17]; first compound 0.08 µM) was 0.694. For the same compound, the relative viability ([17]; first compound 0.253 µM) was 0.656, the relative viability ([17]; first compound 0.8 µM) was 0.647 and the relative viability ([17]; first compound 2.53 µM) was 0.618. It also gave a relative viability ([17]; first compound 8 µM) of 0.734, a relative viability ([18]; first compound 0.08 µM) of 0.199 and a relative viability ([18]; first compound 0.253 µM) of 0.196. It also gave a relative viability ([18]; first compound 0.8 µM) of 0.165, a relative viability ([18]; first compound 2.53 µM) of 0.122 and a relative viability ([18]; first compound 8 µM) of 0.188. The relative viability ([19]; first compound 0.08 µM) was 1.25, the relative viability ([19]; first compound 0.253 µM) was 1.46 and the relative viability ([19]; first compound 0.8 µM) was 1.07. For the same compound, the relative viability ([19]; first compound 2.53 µM) was 1.31, the relative viability ([19]; first compound 8 µM) was 1.25 and the relative viability ([20]; first compound 0.08 µM) was 0.303. It also gave a relative viability ([20]; first compound 0.253 µM) of 0.191, a relative viability ([20]; first compound 0.8 µM) of 0.265 and a relative viability ([20]; first compound 2.53 µM) of 0.114. For the same compound, the relative viability ([20]; first compound 8 µM) was 0.345.
